Reference: ChEMBL document CHEMBL1201862, “PubChem BioAssay data set” (2004)
The source made the active and inactive calls.

How the values were obtained:
[1] = NIH3T3 cell viability loss – ATP luminescence, mouse fibroblasts, counter-screen, dose response (AID 2010); format: functional, cell-based;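 further: cells exposed to compound for about 90 hours before reading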
[2] = molecular target: Dual specificity protein phosphatase 3 (Homo sapiens, UniProt P51452); experiment: VHR1 phosphatase inhibitors, biochemical (AID 1878)
[3] = molecular target: 72 kDa type IV collagenase (Homo sapiens, UniProt P08253); experiment: Dose Response validation of uHTS RPN11 inhibitor hits using a MMP-2 Fluorescence assay.; format: functional
[4] = molecular target: Small ubiquitin-related modifier 1 (Homo sapiens, UniProt P63165); experiment: SUMO1 protein-protein binding blockers, potency – biochemical, FRET, dose response (AID 624383); format: functional; conditions: read-out: IC50_Mean
[5] = molecular target: T1, Sentrin-specific protease 8 (Homo sapiens, UniProt Q96LD8); format: functional;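 further: luminescence read-out of SENP8 inhibition, dose-response confirmation following an ultra-high-throughput screen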
T1 sequence (Q96LD8 whole entry): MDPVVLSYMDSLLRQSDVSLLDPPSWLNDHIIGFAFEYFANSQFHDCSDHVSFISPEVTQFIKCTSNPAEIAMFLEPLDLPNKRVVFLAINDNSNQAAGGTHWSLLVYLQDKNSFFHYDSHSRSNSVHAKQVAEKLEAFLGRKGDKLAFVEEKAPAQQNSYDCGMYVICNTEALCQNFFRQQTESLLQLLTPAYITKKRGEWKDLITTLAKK

Chain of Dual specificity protein phosphatase 3 (P51452 whole entry): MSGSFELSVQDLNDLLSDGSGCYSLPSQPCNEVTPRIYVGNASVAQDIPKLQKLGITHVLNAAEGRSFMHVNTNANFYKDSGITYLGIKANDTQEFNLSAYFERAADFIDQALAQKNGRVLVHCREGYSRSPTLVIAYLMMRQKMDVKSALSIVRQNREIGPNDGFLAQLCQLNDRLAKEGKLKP
Chain of 72 kDa type IV collagenase (P08253 whole entry): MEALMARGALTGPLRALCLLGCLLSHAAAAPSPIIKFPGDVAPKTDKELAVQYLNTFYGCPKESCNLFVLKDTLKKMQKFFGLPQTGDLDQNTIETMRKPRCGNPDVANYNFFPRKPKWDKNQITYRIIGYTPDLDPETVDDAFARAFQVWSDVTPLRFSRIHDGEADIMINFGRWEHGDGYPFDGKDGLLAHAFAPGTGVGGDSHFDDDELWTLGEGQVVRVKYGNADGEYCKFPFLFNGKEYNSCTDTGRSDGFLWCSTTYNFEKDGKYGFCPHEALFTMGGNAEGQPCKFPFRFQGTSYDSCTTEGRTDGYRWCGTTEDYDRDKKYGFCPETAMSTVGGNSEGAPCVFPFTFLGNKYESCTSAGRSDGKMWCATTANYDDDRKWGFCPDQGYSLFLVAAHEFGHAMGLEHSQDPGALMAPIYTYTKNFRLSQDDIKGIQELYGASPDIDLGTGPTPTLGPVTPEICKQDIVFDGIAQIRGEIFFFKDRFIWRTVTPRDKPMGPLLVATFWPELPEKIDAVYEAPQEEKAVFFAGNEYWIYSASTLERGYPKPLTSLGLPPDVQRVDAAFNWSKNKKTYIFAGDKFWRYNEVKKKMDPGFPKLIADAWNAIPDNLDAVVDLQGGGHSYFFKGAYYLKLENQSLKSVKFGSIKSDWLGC
Chain of Small ubiquitin-related modifier 1 (P63165 whole entry): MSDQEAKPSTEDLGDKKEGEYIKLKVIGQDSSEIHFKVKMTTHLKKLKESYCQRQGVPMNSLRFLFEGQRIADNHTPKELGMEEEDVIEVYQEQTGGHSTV

For `COC(=O)c1cc(C)nc2c1C(=O)C(=O)C=C2N1CCOCC1`, which EC50 [1] is on record?
Its EC50 is > 16000 nM (not active).

Which IC50 [2] does the source give for `NS(=O)(=O)c1cc(C(=O)NC2CCSc3ccccc32)ccc1Cl` (stereo not given) here?
The IC50 was < 1230 nM (inactive).

And the IC50 [3]?
Its IC50 is 2680 nM (active).

And the IC50 [4]?
The IC50 was 2290 nM (active).

With `CCOC(=O)C1=C(C)OC2(O)c3ccccc3C(=O)C12O` (stereo not given) as the molecule, how does the IC50 [5] read?
Its IC50 is 5380 nM (active).
